Laboratory results published in patent US11274124B2, “Tubulysin analogues as anticancer agents and payloads for antibody-drug conjugates and methods of treatment therewith” (William Marsh Rice University, priority 2017, dated 2022).
Where two headings read alike, the source gives them in different places.

Key:
[1] = system: HEK 293T (human embryonic kidney cancer cell line); test: In vitro cytotoxicity assay (CellTiter-Glo, 72 hours), HEK 293T; format: cell-based; settings: Homo sapiens, HEK-293T, 72 h
[2] = system: MES SA, MES SA DX and HEK 293T cells; test: In vitro cytotoxicity assay, structure-activity discussion over the cell lines tested; settings: refers to Tables 2 and 3
[3] = system: MES SA DX (MES SA cell line with marked multi-drug resistance); test: In vitro cytotoxicity assay (CellTiter-Glo, 72 hours), MES SA DX; settings: Homo sapiens, MES-SA, 72 h
[4] = system: MES SA (uterine sarcoma cell line); test: In vitro cytotoxicity assay (CellTiter-Glo, 72 hours), MES SA; format: cell-based; settings: Homo sapiens, MES-SA, 72 h
[5] = read-out: HEK 293T, IC50 Value in nM
[6] = read-out: MES SA DX, IC50 Value in nM
[7] = read-out: MES SA, IC50 Value in nM

Row | SMILES | IC50 [1, 5] | cytotoxicity potency (in words, structure-activity discussion) [2] | IC50 [3, 6] | IC50 [4, 7] | IC50 ([1]; read-out: HEK 293T, IC50) | IC50 ([3]; read-out: MES SA DX, IC50) | IC50 ([4]; read-out: MES SA, IC50)
1 | COC(=O)[C@@H](C)C[C@H](Cc1ccc2ccccc2c1)NC(=O)c1csc([C@@H](C[C@H](C(C)C)N(C)C(=O)[C@@H](NC(=O)[C@H]2CCCCN2C)C(C)C)OC(C)=O)n1 [Tb104, Methyl (2S)-4-{[(2-{1-acetoxy-4-methyl-3-[methyl(3-methyl-2-{[(1-methylpiperidin-2-yl)carbonyl]-amino}butanoyl)amino]pentyl}-1,3-thiazol-4-yl)carbonyl]amino}-2-methyl-5-(2-naphthyl)pentanoate] | 12.8 nM | modest potency | > 1000 nM | 9.5 nM | – | – | –
2 | CCCC[C@H](NC(=O)[C@H]1CCCCN1C)C(=O)N(C)[C@H](C[C@@H](OC(C)=O)c1nc(C(=O)N[C@@H](Cc2ccccc2)C[C@H](C)C(=O)OCC)cs1)C(C)C [Tb95, Ethyl (2S,4R)-4-[({2-[(1R,3R)-1-acetoxy-4-methyl-3-{methyl[(2S)-2-({[(2R)-1-methylpiperidin-2-yl]-carbonyl}amino)hexanoyl]amino}pentyl]-1,3-thiazol-4-yl}carbonyl)amino]-2-methyl-5-phenylpentanoate] | 0.53 nM | lack of or significantly lower cytotoxicities | > 1000 nM | 0.937 nM | 0.53 nM | > 1000 nM | 0.937 nM
3 | CCCC[C@H](NC(=O)[C@H]1CCCN1C)C(=O)N(C)[C@H](C[C@@H](OC(C)=O)c1nc(C(=O)N[C@@H](Cc2ccccc2)C[C@H](C)C(=O)OCC)cs1)C(C)C [Tb96, Ethyl (2S,4R)-4-[({2-[(1R,3R)-1-acetoxy-4-methyl-3-{methyl[(2S)-2-({[(2R)-1-methylpyrrolidin-2-yl]carbonyl}amino)hexanoyl]amino}pentyl]-1,3-thiazol-4-yl}carbonyl)amino]-2-methyl-5-phenylpentanoate] | 5.26 nM | lack of or significantly lower cytotoxicities | > 1000 nM | 10.5 nM | – | – | –
4 | COC(=O)[C@@H](C)C[C@H](Cc1ccccc1)NC(=O)c1nc([C@@H](C[C@H](C(C)C)N(C)C(=O)[C@@H](NC(=O)[C@H]2CCCN2C)C(C)C)OC(C)=O)sc1C [Tb70, Methyl (2S,4R)-4-[({2-[(1R,3R)-1-acetoxy-4-methyl-3-{methyl[(2S)-3-methyl-2-({[(2R)-1-methyl-pyrrolidin-2-yl]carbonyl}amino)butanoyl]amino}pentyl]-5-methyl-1,3-thiazol-4-yl}carbonyl)amino]-2-methyl-5-phenylpentanoate] | 2.32 nM | significant loss of potency | > 1000 nM | 3.11 nM | – | – | –
5 | CCOC(=O)[C@@H](C)C[C@H](Cc1ccccc1)NC(=O)c1csc([C@@H](C[C@H](C(C)C)N(C)C(=O)[C@H](CCC(C)C)NC(=O)[C@H]2CCCN2C)OC(C)=O)n1 [Tb98, Ethyl (2S,4R)-4-[({2-[(1R,3R)-1-acetoxy-4-methyl-3-{methyl[(2S)-5-methyl-2-({[(2R)-1-methyl-pyrrolidin-2-yl]carbonyl}amino)hexanoyl]amino}pentyl]-1,3-thiazol-4-yl}carbonyl)amino]-2-meth-yl-5-phenylpentanoate] | 26.5 nM | lack of or significantly lower cytotoxicities | 393 nM | 41.8 nM | – | – | –
6 | CC(=O)O[C@H](C[C@H](C(C)C)N(C)C(=O)[C@@H](NC(=O)[C@H]1CCCN1C)C(C)C)c1nc(C(=O)N[C@@H](Cc2ccccc2)C[C@H](C)C(=O)O)c(C)s1 [Tb71, (2S,4R)-4-[({2-[(1R,3R)-1-Acetoxy-4-methyl-3-{methyl[(2S)-3-methyl-2-({[(2R)-1-methylpyrrolidin-2-yl]carbonyl}amino)butanoyl]amino}pentyl]-5-methyl-1,3-thiazol-4-yl}carbonyl)amino]-2-methyl-5-phenylpentanoic acid] | 0.408 nM | significant loss of potency | > 1000 nM | 1.42 nM | – | – | –
7 | CC[C@H](C)[C@H](NC(=O)c1cccn1C)C(=O)N(C)[C@H](C[C@@H](OC(C)=O)c1nc(C(=O)N[C@@H](Cc2ccccc2)C[C@H](C)C(=O)OC)cs1)C(C)C [Tb50] | > 1000 nM | insignificant or low biological activity | > 1000 nM | > 1000 nM | – | – | –
8 | CC(=O)O[C@H](C[C@H](C(C)C)N(C)C(=O)[C@@H](NC(=O)[C@H]1CCCCN1C)C(C)C)c1nc(C(=O)N[C@@H](Cc2ccccc2)C[C@H](C)C(=O)O)cs1 [Tb61, (2S,4R)-4-[({2-[(1R,3R)-1-Acetoxy-4-methyl-3-{methyl[(2S)-3-methyl-2-({[(2R)-1-methylpiperidin-2-yl]carbonyl}amino)butanoyl]amino}pentyl]-1,3-thiazol-4-yl}carbonyl)amino]-2-methyl-5-phenylpentanoic acid] | 5.99 nM | exceptional potencies | > 1000 nM | 6.07 nM | – | – | –
9 | CC(C)[C@@H](C[C@@H](O)c1nc(C(=O)N[C@@H](Cc2ccccc2)C[C@H](C)C(=O)O)cs1)N(C)C(=O)[C@H](CC(F)(F)F)NC(=O)[C@H]1CCCCN1C [Tb83, (2S,4R)-4-[({2-[(1R,3R)-1-Hydroxy-4-methyl-3-{methyl[(2S)-4,4,4-trifluoro-2-({[(2R)-1-methyl-piperidin-2-yl]carbonyl}amino)butanoyl]amino}pentyl]-1,3-thiazol-4-yl}carbonyl)amino]-2-methyl-5-phenylpentanoic acid] | > 1000 nM | – | > 1000 nM | > 1000 nM | – | – | –
10 | COC(=O)C12C3C4C1C1C2C3C41NC(=O)c1csc([C@@H](C[C@H](C(C)C)N(C)C(=O)[C@@H](NC(=O)[C@H]2CCCCN2C)C2CC2)OC(C)=O)n1 (stereo partly drawn) [Tb99, Methyl 4-[({2-[(1R,3R)-1-acetoxy-3-{[(2S)-2-cyclopropyl-2-({[(2R)-1-methylpiperidin-2-yl]carbonyl}-amino)acetyl](methyl)amino}-4-methylpentyl]-1,3-thiazol-4-yl}carbonyl)amino]cubane-1-carboxylate] | > 1000 nM | – | > 1000 nM | > 1000 nM | – | – | –
11 | CC[C@H](C)[C@H](NC(=O)[C@H]1CCCCN1C)C(=O)N(C)[C@H](CCc1nc(C(=O)N[C@@H](Cc2ccccc2)C[C@H](C)C(=O)OC)cs1)C(C)C [PTb-D42] | – | significant reduction in potency | – | – | – | – | –
12 | COC(=O)CC12CC(NC(=O)c3csc([C@@H](C[C@H](C(C)C)N(C)C(=O)[C@@H](NC(=O)[C@H]4CCCCN4C)C(C)C)OC(C)=O)n3)(C1)C2 [Tb103, Methyl (3-{[(2-{1-acetoxy-4-methyl-3-[methyl(3-methyl-2-{[(1-methylpiperidin-2-yl)carbonyl]amino}-butanoyl)amino]pentyl}-1,3-thiazol-4-yl)carbonyl]amino}bicyclo[11.1.]pent-1-yl)acetate] | 1.79 nM | – | 22.6 nM | 2.74 nM | – | – | –
13 | CC(C)[C@@H](C[C@@H](O)c1nc(C(=O)N[C@@H](Cc2ccccc2)C[C@H](C)C(=O)O)cs1)N(C)C(=O)[C@H](CC(F)(F)F)NC(=O)[C@H]1CCCN1C [Tb84, (2S,4R)-4-[({2-[(1R,3R)-1-Hydroxy-4-methyl-3-{methyl[(2S)-4,4,4-trifluoro-2-({[(2R)-1-methyl-pyrrolidin-2-yl]carbonyl}amino)butanoyl]amino}pentyl]-1,3-thiazol-4-yl}carbonyl)amino]-2-meth-yl-5-phenylpentanoic acid] | > 1000 nM | – | > 1000 nM | > 1000 nM | – | – | –
14 | COC(=O)C12CC(NC(=O)c3csc([C@@H](C[C@H](C(C)C)N(C)C(=O)[C@@H](NC(=O)[C@H]4CCCCN4C)C4CC4)OC(C)=O)n3)(C1)C2 [Tb100, Methyl 3-{[(2-{1-acetoxy-3-[(cyclopropyl{[(1-methylpiperidin-2-yl)carbonyl]amino}acetyl)(methyl)-amino]-4-methylpentyl}-1,3-thiazol-4-yl)carbonyl]amino}bicyclo[1.1.1]pentane-1-carboxylate] | 16.5 nM | – | > 1000 nM | 15.2 nM | – | – | –
15 | COC(=O)[C@@H](C)C[C@H](Cc1ccccc1)NC(=O)c1csc([C@@H](C[C@H](C(C)C)N(C)C(=O)[C@H](C)NC(=O)[C@H]2CCCN2C)OC(C)=O)n1 [Tb90, Methyl (2S,4R)-4-[({2-[(1R,3R)-1-acetoxy-4-methyl-3-{methyl[(2S)-2-({[(2R)-1-methylpyrrolidin-2-yl]carbonyl}amino)propanoyl]amino}pentyl]-1,3-thiazol-4-yl}carbonyl)amino]-2-methyl-5-phenylpentanoate] | 636 nM | – | > 1000 nM | > 1000 nM | – | – | –
16 | CC(=O)O[C@H](C[C@H](C(C)C)N(C)C(=O)[C@@H](NC(=O)[C@H]1CCCCN1C)C(C)C)c1cccc(C(=O)N[C@@H](Cc2ccccc2)C[C@H](C)C(=O)O)n1 [Tb65, (2S,4R)-4-[({6-[(1R,3R)-1-Acetoxy-4-methyl-3-{methyl[(2S)-3-methyl-2-({[(2R)-1-methylpiperidin-2-yl]carbonyl}amino)butanoyl]amino}pentyl]pyridin-2-yl}carbonyl)amino]-2-methyl-5-phenylpentanoic acid] | 2.04 nM | – | 279 nM | 2.44 nM | – | – | –
17 | CC[C@H](C)[C@H](NC(=O)[C@H]1CCCCN1C)C(=O)N(C)[C@H](CCc1nc(C(=O)N[C@@H](Cc2ccccc2)C[C@H](C)C(=O)O)cs1)C(C)C [PTb-D43, pretubulysin D, reference compound] | – | significant reduction in potency | – | – | – | – | –
